According to US10681909B2, “Herbicidal triazoles” (FMC Corporation, priority 2014, dated 2020):

Assays:
pigweed [1] = assay: Test A preemergence; assay type: in vivo, Amaranthus retroflexus; conditions: Amaranthus retroflexus, pre-emergence, 240 h, 0 to 100 scale (0 no effect, 100 complete control), read-out: Plant response rating, Pigweed
Summary of the method: (§1)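 Pre- and postemergence spray tests in a loam soil–sand mixture: seeded soil received a directed spray, while established seedlings 2–10 cm high at the one- to two-leaf stage were treated over the top. Compounds were carried in non-phytotoxic solvent with surfactant.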

barnyardgrass [2] = assay: Test A postemergence; assay type: in vivo, Echinochloa crus-galli; conditions: Echinochloa crus-galli, post-emergence, 240 h, 0 to 100 scale (0 no effect, 100 complete control), approx. 10 d, read-out: Plant response rating, Barnyardgrass
Summary of the method: as §1

foxtail, giant [3] = assay: Test A postemergence; assay type: in vivo, Setaria faberii; conditions: Setaria faberi, post-emergence, 240 h, 0 to 100 scale (0 no effect, 100 complete control), approx. 10 d, read-out: Plant response rating, Foxtail, Giant
Summary of the method: as §1

corn = assay: Test A postemergence; assay type: in vivo, Zea mays; conditions: Zea mays, post-emergence, 240 h, 0 to 100 scale (0 no effect, 100 complete control), approx. 10 d
Summary of the method: as §1

rice = assay: Test B flooded paddy test; assay type: in vivo, Oryza sativa; conditions: Oryza sativa, 360 h, 250 g ai/ha, applied to paddy water at 2-leaf stage, visual rating after 13 to 15 d, scale 0 (no effect) to 100 (complete control), read-out: Plant response rating, Rice, Flood
Summary of the method: (§2)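 Pots were flooded to 3 cm above the soil at treatment, and compounds were applied directly into the paddy water. That depth was held throughout. After 13 to 15 d in a greenhouse, plants were rated visually against untreated controls.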

ducksalad = assay: Test B flooded paddy test; assay type: in vivo, Heteranthera limosa; conditions: Heteranthera limosa, 360 h, 250 g ai/ha, applied to paddy water at 2-leaf stage, visual rating after 13 to 15 d, scale 0 (no effect) to 100 (complete control), read-out: Plant response rating, Ducksalad, Flood
Summary of the method: as §2

blackgrass = assay: Test C postemergence; assay type: in vivo, Alopecurus myosuroides
Summary of the method: (§3)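 Preemergence: seeds sown in loam soil–sand blend and treated with test chemicals formulated in a non-phytotoxic solvent mixture containing a surfactant. Postemergence: plants grown in peat moss/vermiculite-based medium and sprayed with the same formulation at 2 to 18 cm height (1- to 4-leaf stage).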

ryegrass, Italian = assay: Test C postemergence; assay type: in vivo, Lolium multiflorum
Summary of the method: as §3

wheat (winter wheat) = assay: Test C postemergence; assay type: in vivo, Triticum aestivum
Summary of the method: as §3

foxtail, giant [4] = assay: Test C postemergence; assay type: in vivo, Setaria faberii
Summary of the method: as §3

johnsongrass = assay: Test C postemergence; assay type: in vivo, Sorghum halepense
Summary of the method: as §3

nutsedge, yellow = assay: Test C postemergence; assay type: in vivo, Cyperus esculentus
Summary of the method: as §3

pigweed [5] = assay: Test C postemergence; assay type: in vivo, Amaranthus retroflexus
Summary of the method: as §3

ragweed = assay: Test C postemergence; assay type: in vivo, Ambrosia elatior
Summary of the method: as §3

barnyardgrass [6] = assay: Test C postemergence; assay type: in vivo, Echinochloa crus-galli
Summary of the method: as §3

oilseed rape = assay: Test C postemergence; assay type: in vivo, Brassica napus
Summary of the method: as §3

velvetleaf = assay: Test C postemergence; assay type: in vivo, Abutilon theophrasti
Summary of the method: as §3

chickweed = assay: Test C postemergence; assay type: in vivo, Stellaria media
Summary of the method: as §3

oat, wild = assay: Test C postemergence; assay type: in vivo, Avena fatua
Summary of the method: as §3

kochia = assay: Test C postemergence; assay type: in vivo, Kochia scoparia
Summary of the method: as §3

CCCc1nc(-c2ccc(F)cc2)nn1Cc1ccnc(C(F)(F)F)c1 [Compound 6, 4-[[3-(4-fluorophenyl)-5-propyl-1H-1,2,4-triazol-1-yl]methyl]-2-(trifluoromethyl)pyridine]
pest or weed control at 125 g/ha (pigweed [1]; 125 g ai/ha): 100% | pest or weed control at 500 g/ha (pigweed [1]; 500 g ai/ha, approx. 10 d): 100% | pest or weed control at 125 g/ha (barnyardgrass [2]; 125 g ai/ha): 80% | pest or weed control at 500 g/ha (barnyardgrass [2]; 500 g ai/ha): 90% | pest or weed control at 125 g/ha (foxtail, giant [3]; 125 g ai/ha): 90% | pest or weed control at 500 g/ha (foxtail, giant [3]; 500 g ai/ha): 90% | Corn plant response rating (crop injury, 0 = no effect, 100 = complete kill) at 125 g/ha (corn; 125 g ai/ha): 40% | Corn plant response rating (crop injury, 0 = no effect, 100 = complete kill) at 500 g/ha (corn; 500 g ai/ha): 70% | plant injury at 250 g/ha (rice): 50% | pest or weed control at 250 g/ha (ducksalad): 70% | Plant response rating (scale of 0 to 100 where 0 is no effect and 100 is complete control) (blackgrass; 31 g ai/ha): 5 | Plant response rating (scale of 0 to 100 where 0 is no effect and 100 is complete control) (blackgrass; 62 g ai/ha): 5 | Plant response rating (scale of 0 to 100 where 0 is no effect and 100 is complete control) (blackgrass; 125 g ai/ha): 5 | Plant response rating (scale of 0 to 100 where 0 is no effect and 100 is complete control) (blackgrass; 250 g ai/ha): 10 | Plant response rating (scale of 0 to 100 where 0 is no effect and 100 is complete control) (ryegrass, Italian; 31 g ai/ha): 5 | Plant response rating (scale of 0 to 100 where 0 is no effect and 100 is complete control) (ryegrass, Italian; 62 g ai/ha): 5 | Plant response rating (scale of 0 to 100 where 0 is no effect and 100 is complete control) (ryegrass, Italian; 125 g ai/ha): 5 | Plant response rating (scale of 0 to 100 where 0 is no effect and 100 is complete control) (ryegrass, Italian; 250 g ai/ha): 10 | Plant response rating (scale of 0 to 100 where 0 is no effect and 100 is complete control) (wheat (winter wheat); 31 g ai/ha): 5 | Plant response rating (scale of 0 to 100 where 0 is no effect and 100 is complete control) (wheat (winter wheat); 62 g ai/ha): 10 | Plant response rating (scale of 0 to 100 where 0 is no effect and 100 is complete control) (wheat (winter wheat); 125 g ai/ha): 15 | Plant response rating (scale of 0 to 100 where 0 is no effect and 100 is complete control) (wheat (winter wheat); 250 g ai/ha): 15 | Plant response rating (scale of 0 to 100 where 0 is no effect and 100 is complete control) (foxtail, giant [4]; 31 g ai/ha): 40 | Plant response rating (scale of 0 to 100 where 0 is no effect and 100 is complete control) (foxtail, giant [4]; 62 g ai/ha): 40 | Plant response rating (scale of 0 to 100 where 0 is no effect and 100 is complete control) (foxtail, giant [4]; 125 g ai/ha): 45 | Plant response rating (scale of 0 to 100 where 0 is no effect and 100 is complete control) (foxtail, giant [4]; 250 g ai/ha): 75 | Plant response rating (scale of 0 to 100 where 0 is no effect and 100 is complete control) (johnsongrass; 31 g ai/ha): 10 | Plant response rating (scale of 0 to 100 where 0 is no effect and 100 is complete control) (johnsongrass; 62 g ai/ha): 10 | Plant response rating (scale of 0 to 100 where 0 is no effect and 100 is complete control) (johnsongrass; 125 g ai/ha): 15 | Plant response rating (scale of 0 to 100 where 0 is no effect and 100 is complete control) (johnsongrass; 250 g ai/ha): 35 | Plant response rating (scale of 0 to 100 where 0 is no effect and 100 is complete control) (nutsedge, yellow; 31 g ai/ha): 5 | Plant response rating (scale of 0 to 100 where 0 is no effect and 100 is complete control) (nutsedge, yellow; 62 g ai/ha): 5 | Plant response rating (scale of 0 to 100 where 0 is no effect and 100 is complete control) (nutsedge, yellow; 125 g ai/ha): 5 | Plant response rating (scale of 0 to 100 where 0 is no effect and 100 is complete control) (nutsedge, yellow; 250 g ai/ha): 5 | Plant response rating (scale of 0 to 100 where 0 is no effect and 100 is complete control) (pigweed [5]; 31 g ai/ha): 80 | Plant response rating (scale of 0 to 100 where 0 is no effect and 100 is complete control) (pigweed [5]; 62 g ai/ha): 80 | Plant response rating (scale of 0 to 100 where 0 is no effect and 100 is complete control) (pigweed [5]; 125 g ai/ha): 85 | Plant response rating (scale of 0 to 100 where 0 is no effect and 100 is complete control) (pigweed [5]; 250 g ai/ha): 85 | Plant response rating (scale of 0 to 100 where 0 is no effect and 100 is complete control) (ragweed; 31 g ai/ha): 75 | Plant response rating (scale of 0 to 100 where 0 is no effect and 100 is complete control) (ragweed; 62 g ai/ha): 75 | Plant response rating (scale of 0 to 100 where 0 is no effect and 100 is complete control) (ragweed; 250 g ai/ha): 80 | Plant response rating (scale of 0 to 100 where 0 is no effect and 100 is complete control) (barnyardgrass [6]; 31 g ai/ha): 20 | Plant response rating (scale of 0 to 100 where 0 is no effect and 100 is complete control) (barnyardgrass [6]; 62 g ai/ha): 20 | Plant response rating (scale of 0 to 100 where 0 is no effect and 100 is complete control) (barnyardgrass [6]; 125 g ai/ha): 25 | Plant response rating (scale of 0 to 100 where 0 is no effect and 100 is complete control) (barnyardgrass [6]; 250 g ai/ha): 40 | Plant response rating (scale of 0 to 100 where 0 is no effect and 100 is complete control) (oilseed rape; Oilsee Rape, 250 g ai/ha): 95 | Plant response rating (scale of 0 to 100 where 0 is no effect and 100 is complete control) (oilseed rape; Oilseed Rape, 31 g ai/ha): 55 | Plant response rating (scale of 0 to 100 where 0 is no effect and 100 is complete control) (oilseed rape; Oilseed Rape, 62 g ai/ha): 55 | Plant response rating (scale of 0 to 100 where 0 is no effect and 100 is complete control) (oilseed rape; Oilseed Rape, 125 g ai/ha): 95 | Plant response rating (scale of 0 to 100 where 0 is no effect and 100 is complete control) (velvetleaf; 31 g ai/ha): 55 | Plant response rating (scale of 0 to 100 where 0 is no effect and 100 is complete control) (velvetleaf; 62 g ai/ha): 55 | Plant response rating (scale of 0 to 100 where 0 is no effect and 100 is complete control) (velvetleaf; 125 g ai/ha): 55 | Plant response rating (scale of 0 to 100 where 0 is no effect and 100 is complete control) (velvetleaf; 250 g ai/ha): 55 | Plant response rating (scale of 0 to 100 where 0 is no effect and 100 is complete control) (chickweed; 31 g ai/ha): 70 | Plant response rating (scale of 0 to 100 where 0 is no effect and 100 is complete control) (chickweed; 62 g ai/ha): 80 | Plant response rating (scale of 0 to 100 where 0 is no effect and 100 is complete control) (chickweed; 125 g ai/ha): 85 | Plant response rating (scale of 0 to 100 where 0 is no effect and 100 is complete control) (chickweed; 250 g ai/ha): 95 | Plant response rating (scale of 0 to 100 where 0 is no effect and 100 is complete control) (oat, wild; 31 g ai/ha): 5 | Plant response rating (scale of 0 to 100 where 0 is no effect and 100 is complete control) (oat, wild; 62 g ai/ha): 5 | Plant response rating (scale of 0 to 100 where 0 is no effect and 100 is complete control) (oat, wild; 125 g ai/ha): 10 | Plant response rating (scale of 0 to 100 where 0 is no effect and 100 is complete control) (oat, wild; 250 g ai/ha): 10 | Plant response rating (scale of 0 to 100 where 0 is no effect and 100 is complete control) (kochia; 31 g ai/ha): 90 | Plant response rating (scale of 0 to 100 where 0 is no effect and 100 is complete control) (kochia; 62 g ai/ha): 90 | Plant response rating (scale of 0 to 100 where 0 is no effect and 100 is complete control) (kochia; 125 g ai/ha): 90 | Plant response rating (scale of 0 to 100 where 0 is no effect and 100 is complete control) (kochia; 250 g ai/ha): 90
